Measurements: US20250230154A1, “COMPOUND HAVING SHP2 PROTEIN DEGRADING ACTIVITY, AND MEDICAL USES THEREOF” (UBIX THERAPEUTICS, INC., priority 2021, published 2025)

Target: T1, SHP2 protein (Homo sapiens, UniProt Q06124)
T1 sequence (Q06124 1-593): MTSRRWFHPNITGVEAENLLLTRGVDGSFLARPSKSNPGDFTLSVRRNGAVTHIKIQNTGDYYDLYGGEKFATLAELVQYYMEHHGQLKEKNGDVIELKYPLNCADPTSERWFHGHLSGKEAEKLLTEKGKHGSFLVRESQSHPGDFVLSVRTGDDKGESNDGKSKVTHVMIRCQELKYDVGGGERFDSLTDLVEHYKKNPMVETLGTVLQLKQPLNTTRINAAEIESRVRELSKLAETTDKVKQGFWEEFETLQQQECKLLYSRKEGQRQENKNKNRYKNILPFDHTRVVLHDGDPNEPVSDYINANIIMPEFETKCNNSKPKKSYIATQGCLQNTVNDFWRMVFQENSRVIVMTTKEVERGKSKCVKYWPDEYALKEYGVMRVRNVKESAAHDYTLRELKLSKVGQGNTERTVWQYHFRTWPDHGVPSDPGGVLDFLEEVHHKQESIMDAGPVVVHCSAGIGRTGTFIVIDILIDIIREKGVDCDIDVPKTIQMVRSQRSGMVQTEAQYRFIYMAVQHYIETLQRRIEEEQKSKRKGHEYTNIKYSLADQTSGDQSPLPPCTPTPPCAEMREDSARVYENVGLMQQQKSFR
Experiment: Measurement of SHP2 protein degradation in MV-4-11 cells (western blotting)
Assay type: cell-based
Set-up: endogenous in cells; host or cells: MV-4-11
Details: MV-4-11 cells, 24 hours
How it was run: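 SHP2 protein levels were assessed by western blotting in MV-4-11 cells after a 24 hour compound treatment. Lysates were sonicated, centrifuged, normalized by BCA assay at 562 nm, run on Bis-tris 4-12% gels, transferred to NC membrane, probed with anti-SHPTP2 (70 kDa) and anti-GAPDH (37 kDa) antibodies, and detected on LI-COR Odyssey.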

| Structure (SMILES) | SHP2 degradation (%) 10 nM [%] | SHP2 degradation (%) 100 nM [%] | SHP2 degradation (%) 1000 nM [%] |
| --- | --- | --- | --- |
| Cc1ncsc1-c1ccc(CNC(=O)[C@@H]2C[C@@H](O)CN2C(=O)[C@@H](NC(=O)C2(F)CC2)C(C)(C)C)c(OCCOc2cnc(N3CCC(CCCC(=O)Nc4cccc(Sc5cnc(N6CCC(C)(CN)CC6)cn5)c4Cl)CC3)nc2)c1 [Example 90, (2S,4R)—N-(2-(2-((2-(4-(4-((3-((5-(4-(aminomethyl)-4-methylpiperidin-1-yl)pyrazin-2-yl)thio)-2-chlorophenyl)amino)-4-oxobutyl)piperidin-1-yl)pyrimidin-5-yl)oxy)ethoxy)-4-(4-methylthiazol-5-yl)benzyl)-1-((S)-2-(1-fluorocyclopropane-1-carboxamido)-3,3-dimethylbutanoyl)-4-hydroxypyrrolidine-2-carboxamide] | 6 | 97 | 98 |
| Cc1ncsc1-c1ccc(CNC(=O)[C@@H]2C[C@@H](O)CN2C(=O)[C@@H](NC(=O)C2(F)CC2)C(C)(C)C)c(OCCCN2CCC(CC(=O)Nc3cccc(Sc4cnc(N5CC[C@H](CN)C5)cn4)c3Cl)CC2)c1 [Example 11, (2S,4R)—N-(2-(3-(4-(2-((3-((5-((R)-3-(aminomethyl)pyrrolidin-1-yl)pyrazin-2-yl)thio)-2-chlorophenyl)amino)-2-oxoethyl)piperidin-1-yl)propoxy)-4-(4-methylthiazol-5-yl)benzyl)-1-((S)-2-(1-fluorocyclopropane-1-carboxamido)-3,3-dimethylbutanoyl)-4-hydroxypyrrolidine-2-carboxamide] | −8.9 | 19.2 | 35.9 |
| Cc1ncsc1-c1ccc(CNC(=O)[C@@H]2C[C@@H](O)CN2C(=O)[C@@H](NC(=O)C2CC2)C(C)(C)C)c(OCCN2CCN(CC(=O)Nc3cccc(Sc4cnc(N5CCC(C)(CN)CC5)cn4)c3Cl)C(=O)C2)c1 [Example 79, (2S,4R)—N-(2-(2-(4-(2-((3-((5-(4-(aminomethyl)-4-methylpiperidin-1-yl)pyrazin-2-yl)thio)-2-chlorophenyl)amino)-2-oxoethyl)-3-oxopiperazin-1-yl)ethoxy)-4-(4-methylthiazol-5-yl)benzyl)-1-((S)-2-(cyclopropanecarboxamido)-3,3-dimethylbutanoyl)-4-hydroxypyrrolidine-2-carboxamide] | 78.4 | 98.6 | – |
| Cc1ncsc1-c1ccc(CNC(=O)[C@@H]2C[C@@H](O)CN2C(=O)[C@@H](NC(=O)C2(F)CC2)C(C)(C)C)c(OCCC2CCN(C(=O)CCC(=O)Nc3cccc(Sc4cnc(N5CCC(C)(CN)CC5)cn4)c3Cl)CC2)c1 [Example 45, (2S,4R)—N-(2-(2-(1-(4-((3-((5-(4-(aminomethyl)-4-methylpiperidin-1-yl)pyrazin-2-yl)thio)-2-chlorophenyl)amino)-4-oxobutanoyl)piperidin-4-yl)ethoxy)-4-(4-methylthiazol-5-yl)benzyl)-1-((S)-2-(1-fluorocyclopropane-1-carboxamido)-3,3-dimethylbutanoyl)-4-hydroxypyrrolidine-2-carboxamide] | 68.0 | 91.0 | 93.0 |
| Cc1ncsc1-c1ccc(CNC(=O)[C@@H]2C[C@@H](O)CN2C(=O)[C@@H](NC(=O)C2(F)CC2)C(C)(C)C)c(OCCN2CCN(C(=O)CC(=O)Nc3cccc(Sc4cnc(N5CCC(C)(CN)CC5)cn4)c3Cl)[C@H](C)C2)c1 [Example 62, (2S,4R)—N-(2-(2-((R)-4-(3-((3-((5-(4-(aminomethyl)-4-methylpiperidin-1-yl)pyrazin-2-yl)thio)-2-chlorophenyl)amino)-3-oxopropanoyl)-3-methylpiperazin-1-yl)ethoxy)-4-(4-methylthiazol-5-yl)benzyl)-1-((S)-2-(1-fluorocyclopropane-1-carboxamido)-3,3-dimethylbutanoyl)-4-hydroxypyrrolidine-2-carboxamide] | 82.5 | 96 | – |
| Cc1ncsc1-c1ccc(CNC(=O)[C@@H]2C[C@@H](O)CN2C(=O)[C@@H](NC(=O)C2(F)CC2)C(C)(C)C)c(OC2CC3(CCN(C(=O)CC(=O)N(C)c4cccc(Sc5cnc(N6CCC(C)(CN)CC6)cn5)c4Cl)CC3)C2)c1 [Example 51, (2S,4R)—N-(2-((7-(3-((3-((5-(4-(aminomethyl)-4-methylpiperidin-1-yl)pyrazin-2-yl)thio)-2-chlorophenyl)(methyl)amino)-3-oxopropanoyl)-7-azaspiro[3.5]nonan-2-yl)oxy)-4-(4-methylthiazol-5-yl)benzyl)-1-((S)-2-(1-fluorocyclopropane-1-carboxamido)-3,3-dimethylbutanoyl)-4-hydroxypyrrolidine-2-carboxamide] | 4.7 | 74.1 | – |
| COC(=O)[C@H]1CN(C(=O)CC(=O)Nc2cccc(Sc3cnc(N4CCC(C)(CN)CC4)cn3)c2Cl)CCN1CCOc1cc(-c2scnc2C)ccc1CNC(=O)[C@@H]1C[C@@H](O)CN1C(=O)[C@@H](NC(=O)C1(F)CC1)C(C)(C)C [Example 67, Methyl (R)-4-(3-((3-((5-(4-(aminomethyl)-4-methylpiperidin-1-yl)pyrazin-2-yl)thio)-2-chlorophenyl)amino)-3-oxopropanoyl)-1-(2-(2-(((2S,4R)-1-((S)-2-(1-fluorocyclopropane-1-carboxamido)-3,3-dimethylbutanoyl)-4-hydroxypyrrolidine-2-carboxamido)methyl)-5-(4-methylthiazol-5-yl)phenoxy)ethyl)piperazine-2-carboxylate] | 68.3 | 98.1 | – |
| Cc1ncsc1-c1ccc(CNC(=O)[C@@H]2C[C@@H](O)CN2C(=O)[C@@H](NC(=O)C2(F)CC2)C(C)(C)C)c(OCCCN2CCC(CC(=O)Nc3cccc(Sc4cnc(N5CCC(C)(N)CC5)cn4)c3Cl)CC2)c1 [Example 8, (2S,4R)—N-(2-(3-(4-(2-((3-((5-(4-amino-4-methylpiperidin-1-yl)pyrazin-2-yl)thio)-2-chlorophenyl)amino)-2-oxoethyl)piperidin-1-yl)propoxy)-4-(4-methylthiazol-5-yl)benzyl)-1-((S)-2-(1-fluorocyclopropane-1-carboxamido)-3,3-dimethylbutanoyl)-4-hydroxypyrrolidine-2-carboxamide] | 39.5 | 92.6 | 96.5 |
| Cc1ncsc1-c1ccc(CNC(=O)[C@@H]2C[C@@H](O)CN2C(=O)[C@@H](NC(=O)C2(F)CC2)C(C)(C)C)c(OCCC2CCN(C(=O)CC(=O)Nc3cccc(Sc4cnc(N5CCC(C)(CN)CC5)cn4)c3Cl)CC2)c1 [Example 36, (2S,4R)—N-(2-(2-(1-(3-((3-((5-(4-(aminomethyl)-4-methylpiperidin-1-yl)pyrazin-2-yl)thio)-2-chlorophenyl)amino)-3-oxopropanoyl)piperidin-4-yl)ethoxy)-4-(4-methylthiazol-5-yl)benzyl)-1-((S)-2-(1-fluorocyclopropane-1-carboxamido)-3,3-dimethylbutanoyl)-4-hydroxypyrrolidine-2-carboxamide] | 83.0 | 93.5 | 93.5 |
| Cc1ncsc1-c1ccc(CNC(=O)[C@@H]2C[C@@H](O)CN2C(=O)[C@@H](NC(=O)C2(F)CC2)C(C)(C)C)c(OCCCC2CCN(C(=O)CC(=O)Nc3cccc(Sc4cnc(N5CCC(C)(CN)CC5)cn4)c3Cl)CC2)c1 [Example 41, (2S,4R)—N-(2-(3-(1-(3-((3-((5-(4-(aminomethyl)-4-methylpiperidin-1-yl)pyrazin-2-yl)thio)-2-chlorophenyl)amino)-3-oxopropanoyl)piperidin-4-yl)propoxy)-4-(4-methylthiazol-5-yl)benzyl)-1-((S)-2-(1-fluorocyclopropane-1-carboxamido)-3,3-dimethylbutanoyl)-4-hydroxypyrrolidine-2-carboxamide] | 77.0 | 92.5 | 91.5 |
| Cc1ncsc1-c1ccc(CNC(=O)[C@@H]2C[C@@H](O)CN2C(=O)[C@@H](NC(=O)C2(F)CC2)C(C)(C)C)c(OCCCN2CCN(CC(=O)Nc3cccc(Sc4cnc(N5CCC(C)(CN)CC5)cn4)c3Cl)C(=O)C2)c1 [Example 77, (2S,4R)—N-(2-(3-(4-(2-((3-((5-(4-(aminomethyl)-4-methylpiperidin-1-yl)pyrazin-2-yl)thio)-2-chlorophenyl)amino)-2-oxoethyl)-3-oxopiperazin-1-yl)propoxy)-4-(4-methylthiazol-5-yl)benzyl)-1-((S)-2-(1-fluorocyclopropane-1-carboxamido)-3,3-dimethylbutanoyl)-4-hydroxypyrrolidine-2-carboxamide] | 92.4 | 99.5 | – |
